Measured values from patent publication US4257941A, “Polycyclic nitrogen-containing compounds” (BASF Aktiengesellschaft, priority 1976, dated 1981).

Tests used:
[1] = tested on: wheat; assay: Growth height of wheat, greenhouse (Example 7); assay type: in vivo, wheat (Opal variety); conditions: for Plant height relative: control 100
Description: (§1) In the greenhouse, the four cereals wheat ("Opal" variety), rye ("Petkuser"), barley ("Villa") and oats ("Flamingskrone") were sown in plastic dishes 11.5 cm in diameter in a sandy loam adequately supplied with nutrients. The active ingredients were applied at various rates to the soil and to the leaves. When applied to the soil, the active ingredient were sprayed onto the surface of the soil on the day of sowing; in the case of leaf treatment, the leaves were sprayed in the usual manner at a growth height of the plants of 10 cm. During the 18 day growth period, the treated plants grew much more slowly than the untreated control, a fact later confirmed by measurements of the stem length. Measurements were taken of 100 plants from each series.
(§2) The prior art agent used for comparison purposes was N-2-chloroethyl-N,N,N-trimethylammonium chloride (CCC; German Printed Application DAS No. 1,294,734).

[2] = tested on: rye; assay: Growth height of rye, greenhouse (Example 8); assay type: in vivo, rye (Petkuser); conditions: for Plant height relative: control 100
Description: as §1, §2

[3] = tested on: barley; assay: Growth height of barley, greenhouse (Example 9); assay type: in vivo, barley (Villa); conditions: for Plant height relative: control 100
Description: as §1, §2

[4] = tested on: oats; assay: Growth height of oats, greenhouse (Example 10); assay type: in vivo, oats (Flamingskrone); conditions: for Plant height relative: control 100
Description: as §1, §2

[5] = tested on: Hordeum vulgare; assay: Growth height of young cereal plants (Example 11, Table A); assay type: in vivo; conditions: soil treatment
Description: (§3) The vessels used for the experiments were plastic pots having a volume of 1,130 cm^3 (Table A) or paraffined paper cups having a volume of 170 cm^3 (Table B). The pots and cups were filled with a sandy loam. The seeds of the test plants-separated by species-were sown shallow. Preemergence treatment (soil treatment) was effected immediately after sowing and before germination of the seeds. Seeds lying on the surface came into contact with the active ingredients. Postemergence treatment (leaf treatment) took place at an average growth height of the plants (depending on the rate of growth) of from 6 to 10 cm. The substances were suspended, emulsified or dissolved in water as diluent and applied by means of fine nozzles. The vessels were kept in the greenhouse in a temperature range of 12° C. to 25° C., and were regularly sprinkler irrigated for the duration of the experiment. The observation period was 6 to 8 weeks.

[6] = tested on: Triticum aestivum; assay: as above; assay type: in vivo
Description: as §3

[7] = tested on: spring barley; assay: Stem length, lateral shoots and yield in spring barley (Example 12); assay type: in vivo; conditions: 3 kg/ha
Protocol: To examine the effect of the various substances on spring barley up to the maturity stage of the plants, an experiment was carried out in large pots. The plants were grown in quartz sand (fertilized with 2 g N as ammonium nitrate in 3 doses, 1 g P2 O5 as secondary sodium phosphate, 1.5 g K2 O as potassium sulfate, 0.5 g MgO as magnesium sulfate, 10 ml of a solution of trace elements, and 10 mg of iron as an iron complex). […] The treated plants were up to 10% shorter than the control, and yields were also slightly up.

[8] = tested on: cotton; assay: Induction of flowering and growth height of cotton, hydroponic (Example 18); assay type: in vivo; conditions: for Shoot length: 4 weeks; for No. of squares per vessel (3 plants): control 0, average of 3 vessels; for Shoot length rel.: control 100
Protocol: Cotton plants were subjected to hydroponic treatment under the same conditions as in Example 16. The active ingredients were added (1.25 mg/vessel=0.3 ppm and 5 mg/vessel=1.25 ppm) at a height of the plant of 15 to 18 cm. […] The results below are averages from 3 vessels, each of 3 plants.

[9] = tested on: rice; assay: Action on rice (Example 23); assay type: in vivo; conditions: leaf; for Plant height: 66 days; for Plant height relative: control 100
Protocol: At a growth height of 11 to 13 cm the active ingredients were sprayed onto the leaves in the usual manner. The plants were measured after 66 days.

[10] = tested on: sunflowers; assay: Action on sunflowers (Example 24); assay type: in vivo; conditions: for Plant height relative: control 100
Description: The active ingredients were applied both to the soil and to the leaves.

[11] = tested on: Euphorbia geniculata; assay: Growth-regulating action, preemergence, greenhouse (Example 35, Table 2); assay type: in vivo; conditions: for growth height relative: control 100
Description: as §3
(§4) Further experiments were carried out in the greenhouse under the condition described in Example 11. […] As the plants which were examined liked the warmth (Eupghorbia geniculate, Arachis hypogaea, Cynodon dactylon), they were kept at from 20°-30° C. Cynodon dactylon from seed was cut once and the young growth treated postemergence.

[12] = tested on: Arachis hypogaea; assay: Growth-regulating action, postemergence, greenhouse (Example 35, Table 1); assay type: in vivo; conditions: for growth height relative: control 100
Description: as §3, §4

[13] = tested on: Cynodon dactylon; assay: as above; assay type: in vivo; conditions: for growth height relative: control 100
Description: as §3, §4

## C[N+](C)(C)CCCl.[Cl-] [CCC, N-2-chloroethyl-N,N,N-trimethylammonium chloride, reference compound]
[1]; leaf, 0.125 kg/ha
  Plant height: 28.0 cm
  Plant height relative: 93.3
[1]; leaf, 0.5 kg/ha
  Plant height: 26.0 cm
  Plant height relative: 86.7
[1]; leaf, 1.0 kg/ha
  Plant height: 26.0 cm
  Plant height relative: 86.7
[1]; leaf, 2.0 kg/ha
  Plant height: 23.0 cm
  Plant height relative: 76.7
[1]; leaf, 4.0 kg/ha
  Plant height: 23.0 cm
  Plant height relative: 76.7
[1]; soil, 0.5 kg/ha
  Plant height: 26.0 cm
  Plant height relative: 83.9
[1]; soil, 1.0 kg/ha
  Plant height: 24.5 cm
  Plant height relative: 79.0
[1]; soil, 2.0 kg/ha
  Plant height: 22.5 cm
  Plant height relative: 72.6
[1]; soil, 6.0 kg/ha
  Plant height: 22.0 cm
  Plant height relative: 71.0
[2]; leaf, 0.125 kg/ha
  Plant height: 29.0 cm
  Plant height relative: 98.3
[2]; leaf, 0.5 kg/ha
  Plant height: 28.0 cm
  Plant height relative: 94.9
[2]; leaf, 1.0 kg/ha
  Plant height: 27.5 cm
  Plant height relative: 93.2
[2]; leaf, 2.0 kg/ha
  Plant height: 27.5 cm
  Plant height relative: 93.2
[2]; leaf, 4.0 kg/ha
  Plant height: 29.0 cm
  Plant height relative: 98.3
[2]; soil, 0.5 kg/ha
  Plant height: 28.0 cm
  Plant height relative: 96.6
[2]; soil, 1.0 kg/ha
  Plant height: 27.5 cm
  Plant height relative: 94.8
[2]; soil, 2.0 kg/ha
  Plant height: 28.0 cm
  Plant height relative: 96.6
[2]; soil, 6.0 kg/ha
  Plant height: 26.5 cm
  Plant height relative: 91.4
[3]; leaf, 0.125 kg/ha
  Plant height: 29.0 cm
  Plant height relative: 96.7
[3]; leaf, 0.5 kg/ha
  Plant height: 28.5 cm
  Plant height relative: 95.0
[3]; leaf, 1.0 kg/ha
  Plant height: 26.5 cm
  Plant height relative: 88.3
[3]; leaf, 2.0 kg/ha
  Plant height: 27.0 cm
  Plant height relative: 90.0
[3]; leaf, 4.0 kg/ha
  Plant height: 27.0 cm
  Plant height relative: 90.0
[3]; soil, 0.5 kg/ha
  Plant height: 28.0 cm
  Plant height relative: 88.9
[3]; soil, 1.0 kg/ha
  Plant height: 27.0 cm
  Plant height relative: 85.7
[3]; soil, 2.0 kg/ha
  Plant height: 26.0 cm
  Plant height relative: 82.5
[3]; soil, 6.0 kg/ha
  Plant height: 25.0 cm
  Plant height relative: 79.4
[4]; leaf, 0.125 kg/ha
  Plant height: 28.0 cm
  Plant height relative: 100
[4]; leaf, 0.5 kg/ha
  Plant height: 28.5 cm
  Plant height relative: 101.8
[4]; leaf, 1.0 kg/ha
  Plant height: 28.0 cm
  Plant height relative: 100
[4]; leaf, 2.0 kg/ha
  Plant height: 27.0 cm
  Plant height relative: 96.4
[4]; leaf, 4.0 kg/ha
  Plant height: 25.5 cm
  Plant height relative: 91.1
[4]; soil, 0.5 kg/ha
  Plant height: 28.0 cm
  Plant height relative: 100
[4]; soil, 1.0 kg/ha
  Plant height: 28.0 cm
  Plant height relative: 100
[4]; soil, 2.0 kg/ha
  Plant height: 27.0 cm
  Plant height relative: 96.4
[4]; soil, 6.0 kg/ha
  Plant height: 26.0 cm
  Plant height relative: 92.9
[5]; 0.5 kg/ha
  Growth height: 36 cm
[5]; 1.0 kg/ha
  Growth height: 31 cm
[5]; 2.0 kg/ha
  Growth height: 33 cm
[6]; leaf treatment, 0.5 kg/ha
  Growth height: 40 cm
[6]; leaf treatment, 1.0 kg/ha
  Growth height: 40 cm
[6]; leaf treatment, 2.0 kg/ha
  Growth height: 40 cm
[6]; soil treatment, 0.5 kg/ha
  Growth height: 40 cm
[6]; soil treatment, 1.0 kg/ha
  Growth height: 40 cm
[6]; soil treatment, 2.0 kg/ha
  Growth height: 33 cm
[7]
  Ear weight: 95.0 g
  No. of lateral shoots: 99
  Stem length: 74.2 cm
[7]; control 100
  Ear weight relative: 105.1
  No. of lateral shoots relative: 106.5
  Stem length relative: 96.5
[8]; 0.3 ppm
  Shoot length: 36.2 cm
  No. of squares per vessel (3 plants): 0
  Shoot length rel.: 76.7
[8]; 1.25 ppm
  Shoot length: 34.8 cm
  No. of squares per vessel (3 plants): 0
  Shoot length rel.: 73.8
[8]; 4 week growth period
  buds / squares: withered in the nascent stage and dropped off
[9]; 1.0 kg/ha
  Plant height: 38.0 cm
  Plant height relative: 93.6
[9]; 2.0 kg/ha
  Plant height: 40.5 cm
  Plant height relative: 99.8
[9]; 4.0 kg/ha
  Plant height: 38.5 cm
  Plant height relative: 94.8
[9]; 6.0 kg/ha
  Plant height: 40.0 cm
  Plant height relative: 98.5
[10]; leaf, 1.5 kg/ha
  Plant height: 38.0 cm
  Plant height relative: 99
[10]; leaf, 6.0 kg/ha
  Plant height: 32.5 cm
  Plant height relative: 85
[10]; soil, 3.0 kg/ha
  Plant height: 40.0 cm
  Plant height relative: 110
[10]; soil, 12.0 kg/ha
  Plant height: 36.0 cm
  Plant height relative: 99

## FC(F)(F)c1cccc(N2C3C4CC(C5N=NC45)C32)c1 (stereo not shown) [drawing 438]
[11]; 0.25 kg/ha
  Growth height: 6 cm
  growth height relative: 54
[11]; 0.5 kg/ha
  Growth height: 5 cm
  growth height relative: 45
[11]; 1.0 kg/ha
  Growth height: 3 cm
  growth height relative: 27

## CN(C)NC(=O)CCC(=O)O [drawing 439]
[11]; 0.25 kg/ha
  Growth height: 12 cm
  growth height relative: 109
[11]; 0.5 kg/ha
  Growth height: 12 cm
  growth height relative: 109
[11]; 1.0 kg/ha
  Growth height: 10 cm
  growth height relative: 91

## C[N+](C)(C)CCCl [[ClCH2CH2N(CH3⊕)3]Cl⊖, reference compound]
[12]; 0.5 kg/ha
  Growth height: 16 cm
  growth height relative: 100
[12]; 2.0 kg/ha
  Growth height: 14 cm
  growth height relative: 87
[13]; 0.5 kg/ha
  Growth height: 9 cm
  growth height relative: 82
[13]; 2.0 kg/ha
  Growth height: 9 cm
  growth height relative: 82
[11]; 0.25 kg/ha
  Growth height: 10 cm
  growth height relative: 91
[11]; 0.5 kg/ha
  Growth height: 10 cm
  growth height relative: 91
[11]; 1.0 kg/ha
  Growth height: 9 cm
  growth height relative: 82
